Experimental data from PubChem BioAssay (NCI).
Where “and” joins values, the source holds several entries; their conditions need not be identical. Identical values can stand only once.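 Assay format: 96-well plates, 48-hour exposure. Here, GI50 denotes the concentration required for 50% inhibition of growth. At the TGI there is no net growth.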

Assays:
Experiment in all cases: NCI-60 cell line screen, 48 h; in the data active means GI50 below about 0.43 µM; inactive means the rest
HS 578T breast = system: HS 578T breast
HOP-92 NSCLC = system: HOP-92 NSCLC
OVCAR-4 ovarian = system: OVCAR-4 ovarian
786-0 renal = system: 786-0 renal
CAKI-1 renal = system: CAKI-1 renal
OVCAR-8 ovarian = system: OVCAR-8 ovarian
NCI-H23 lung = system: NCI-H23 lung
HL-60(TB) leukemia = system: HL-60(TB) leukemia
IGROV1 ovarian = system: IGROV1 ovarian
RPMI-8226 leukemia = system: RPMI-8226 leukemia
SK-MEL-2 melanoma = system: SK-MEL-2 melanoma
SF-295 CNS = system: SF-295 CNS
TK-10 renal = system: TK-10 renal
SK-OV-3 ovarian = system: SK-OV-3 ovarian
BT-549 breast = system: BT-549 breast
PC-3 prostate = system: PC-3 prostate
MDA-MB-231 breast = system: MDA-MB-231 breast
NCI/ADR-RES ovarian = system: NCI/ADR-RES ovarian
UO-31 renal = system: UO-31 renal
ACHN renal = system: ACHN renal
HCT-15 colon = system: HCT-15 colon
MCF7 breast = system: MCF7 breast
EKVX NSCLC = system: EKVX NSCLC
COLO 205 colon = system: COLO 205 colon
NCI-H460 lung = system: NCI-H460 lung
SF-268 CNS = system: SF-268 CNS
DU-145 prostate = system: DU-145 prostate
U251 CNS = system: U251 CNS
HT29 colon = system: HT29 colon
NCI-H226 lung = system: NCI-H226 lung
UACC-62 melanoma = system: UACC-62 melanoma
NCI-H522 lung = system: NCI-H522 lung
HCT-116 colon = system: HCT-116 colon
OVCAR-3 ovarian = system: OVCAR-3 ovarian
HCC-2998 colon = system: HCC-2998 colon
SR leukemia = system: SR leukemia
RXF 393 renal = system: RXF 393 renal
SK-MEL-5 melanoma = system: SK-MEL-5 melanoma
HOP-62 NSCLC = system: HOP-62 NSCLC
KM12 colon = system: KM12 colon
MALME-3M melanoma = system: MALME-3M melanoma
SNB-75 CNS = system: SNB-75 CNS
SNB-19 CNS = system: SNB-19 CNS
MDA-MB-435 = system: MDA-MB-435
SW-620 colon = system: SW-620 colon
CCRF-CEM leukemia = system: CCRF-CEM leukemia
MOLT-4 leukemia = system: MOLT-4 leukemia
OVCAR-5 ovarian = system: OVCAR-5 ovarian
UACC-257 melanoma = system: UACC-257 melanoma
A549 NSCLC = system: A549 NSCLC
SK-MEL-28 melanoma = system: SK-MEL-28 melanoma
M14 melanoma = system: M14 melanoma

CCN(CC)c1ccc2nc3ccc(N=Nc4ccc(N(C)C)cc4)cc3[n+](-c3ccccc3)c2c1
811 nM: TGI (HOP-92 NSCLC)
1530 nM: TGI (IGROV1 ovarian)
2100 nM: TGI (TK-10 renal)
active: GI50 (HOP-92 NSCLC) 170 nM | GI50 (OVCAR-4 ovarian) 24.3 nM | GI50 (786-0 renal) 247 nM | GI50 (CAKI-1 renal) 146 nM | GI50 (OVCAR-8 ovarian) 110 nM | GI50 (NCI-H23 lung) 80.9 nM | GI50 (HL-60(TB) leukemia) 73.9 nM | GI50 (IGROV1 ovarian) 93.4 nM | GI50 (RPMI-8226 leukemia) 31.4 nM | GI50 (SK-MEL-2 melanoma) 369 nM | GI50 (SF-295 CNS) 37.6 nM | GI50 (TK-10 renal) 389 nM | GI50 (SK-OV-3 ovarian) 390 nM | GI50 (BT-549 breast) 424 nM | GI50 (PC-3 prostate) 156 nM | GI50 (MDA-MB-231 breast) 83.1 nM
2560 nM: TGI (PC-3 prostate)
2570 nM: TGI (BT-549 breast)
1480 nM: TGI (OVCAR-8 ovarian)
1370 nM: TGI (NCI-H23 lung)
92.9 nM: TGI (OVCAR-4 ovarian)
> 100000 nM: TGI (HS 578T breast)
2050 nM: TGI (SK-MEL-2 melanoma)
890 nM: TGI (HL-60(TB) leukemia)
1350 nM: TGI (RPMI-8226 leukemia)
426 nM: TGI (MDA-MB-231 breast)
434 nM: TGI (CAKI-1 renal)
2390 nM: TGI (786-0 renal)
inactive: GI50 (HS 578T breast) 448 nM
13700 nM: TGI (SK-OV-3 ovarian)
191 nM: TGI (SF-295 CNS)

COc1cc2c(Nc3ccc(NC(=O)Nc4ccc(Cl)c(C(F)(F)F)c4)c(Cl)c3)ncnc2cc1OCCCN1CCN(C)CC1
inactive: GI50 (NCI/ADR-RES ovarian) 54400 nM | GI50 (UO-31 renal) > 100000 nM | GI50 (ACHN renal) 2240 nM | GI50 (HCT-15 colon) 3900 nM
> 100000 nM: TGI (NCI/ADR-RES ovarian) | TGI (UO-31 renal) | TGI (ACHN renal) | TGI (HCT-15 colon)

CCCCCC(=O)N[C@@H](c1ccco1)[C@@H](O)C(=O)O[C@H]1C[C@@]2(O)[C@@H](OC(=O)c3ccccc3)[C@@H]3[C@]4(OC(C)=O)CO[C@@H]4C[C@H](O)[C@@]3(C)C(=O)[C@H](OC(C)=O)C(=C1C)C2(C)C
4520 nM: TGI (SK-MEL-5 melanoma)
0.15 nM: TGI (COLO 205 colon)
> 25000 nM: TGI (MCF7 breast) | TGI (EKVX NSCLC) | TGI (HOP-92 NSCLC) | TGI (NCI-H460 lung) | TGI (NCI/ADR-RES ovarian) | TGI (OVCAR-4 ovarian) | TGI (SF-268 CNS) | TGI (U251 CNS) | TGI (OVCAR-8 ovarian) | TGI (HT29 colon) | TGI (NCI-H23 lung) | TGI (HCT-116 colon) | TGI (UO-31 renal) | TGI (ACHN renal) | TGI (HCC-2998 colon) | TGI (SR leukemia) | TGI (SK-OV-3 ovarian) | TGI (HOP-62 NSCLC) | TGI (KM12 colon) | TGI (HCT-15 colon) | TGI (SNB-19 CNS)
2.28 nM: TGI (NCI-H522 lung)
28.4 nM: TGI (SF-295 CNS)
8080 nM: TGI (RPMI-8226 leukemia)
30.9 nM and 25 nM: TGI (HS 578T breast)
0.716 nM: TGI (OVCAR-3 ovarian)
active: GI50 (SF-268 CNS) 16.1 nM | GI50 (CAKI-1 renal) 329 nM | GI50 (NCI-H226 lung) 1.33 nM | GI50 (NCI-H23 lung) 0.239 nM | GI50 (UACC-62 melanoma) 4.01 nM | GI50 (IGROV1 ovarian) 1.29 nM | GI50 (SF-295 CNS) 0.9 nM | GI50 (UO-31 renal) 187 nM | GI50 (RXF 393 renal) 0.206 nM | GI50 (TK-10 renal) 27.5 nM | GI50 (SK-OV-3 ovarian) 1.63 nM | GI50 (BT-549 breast) 1.09 nM | GI50 (MALME-3M melanoma) 0.357 nM | GI50 (HCT-15 colon) 39.6 nM | GI50 (SNB-75 CNS) 2.26 nM | GI50 (SNB-19 CNS) 0.55 nM | GI50 (MDA-MB-231 breast) 2.11 nM
inactive: GI50 (NCI/ADR-RES ovarian) 617 nM
10.1 nM: TGI (DU-145 prostate)
18200 nM: TGI (TK-10 renal)

COc1cc([N+](=O)[O-])c(OC)cc1-c1nc2sc(C)c(C)n2c1/C(N)=N/C(=N)N
> 100000 nM: TGI (MCF7 breast) | TGI (EKVX NSCLC) | TGI (COLO 205 colon) | TGI (MDA-MB-435) | TGI (HOP-92 NSCLC) | TGI (NCI-H460 lung) | TGI (SW-620 colon) | TGI (NCI/ADR-RES ovarian) | TGI (DU-145 prostate) | TGI (786-0 renal) | TGI (U251 CNS) | TGI (CAKI-1 renal) | TGI (HT29 colon) | TGI (NCI-H23 lung) | TGI (HL-60(TB) leukemia) | TGI (CCRF-CEM leukemia) | TGI (IGROV1 ovarian) | TGI (MOLT-4 leukemia) | TGI (NCI-H522 lung) | TGI (RPMI-8226 leukemia) | TGI (HCT-116 colon) | TGI (SF-295 CNS) | TGI (UO-31 renal) | TGI (OVCAR-5 ovarian) | TGI (ACHN renal) | TGI (HCC-2998 colon) | TGI (UACC-257 melanoma) | TGI (RXF 393 renal) | TGI (TK-10 renal) | TGI (SK-MEL-5 melanoma) | TGI (HOP-62 NSCLC) | TGI (A549 NSCLC) | TGI (KM12 colon) | TGI (BT-549 breast) | TGI (HCT-15 colon) | TGI (SNB-75 CNS) | TGI (SNB-19 CNS) | TGI (SK-MEL-28 melanoma) | TGI (PC-3 prostate) | TGI (M14 melanoma)
inactive: GI50 (MCF7 breast) 1530 nM | GI50 (EKVX NSCLC) > 100000 nM | GI50 (COLO 205 colon) 13600 nM | GI50 (MDA-MB-435) > 100000 nM | GI50 (HOP-92 NSCLC) 51600 nM | GI50 (NCI-H460 lung) > 100000 nM | GI50 (SW-620 colon) 9800 nM | GI50 (NCI/ADR-RES ovarian) > 100000 nM | GI50 (DU-145 prostate) > 100000 nM | GI50 (786-0 renal) > 100000 nM | GI50 (U251 CNS) 2290 nM | GI50 (CAKI-1 renal) > 100000 nM | GI50 (HT29 colon) > 100000 nM | GI50 (NCI-H23 lung) > 100000 nM | GI50 (HL-60(TB) leukemia) > 100000 nM | GI50 (CCRF-CEM leukemia) 6010 nM | GI50 (IGROV1 ovarian) > 100000 nM | GI50 (MOLT-4 leukemia) > 100000 nM | GI50 (NCI-H522 lung) > 100000 nM | GI50 (RPMI-8226 leukemia) 59300 nM | GI50 (HCT-116 colon) > 100000 nM | GI50 (SF-295 CNS) > 100000 nM | GI50 (UO-31 renal) > 100000 nM | GI50 (OVCAR-5 ovarian) > 100000 nM | GI50 (ACHN renal) > 100000 nM | GI50 (HCC-2998 colon) > 100000 nM | GI50 (UACC-257 melanoma) 1020 nM | GI50 (RXF 393 renal) > 100000 nM | GI50 (TK-10 renal) > 100000 nM | GI50 (SK-MEL-5 melanoma) 8140 nM | GI50 (HOP-62 NSCLC) > 100000 nM | GI50 (A549 NSCLC) > 100000 nM | GI50 (KM12 colon) > 100000 nM | GI50 (BT-549 breast) > 100000 nM | GI50 (HCT-15 colon) > 100000 nM | GI50 (SNB-75 CNS) > 100000 nM | GI50 (SNB-19 CNS) 2330 nM | GI50 (SK-MEL-28 melanoma) > 100000 nM | GI50 (PC-3 prostate) > 100000 nM | GI50 (M14 melanoma) > 100000 nM
